Data published in ChEMBL document CHEMBL1772936, “Synthesis and biological activity of novel N6-substituted and 2,N6-disubstituted adenine ribo- and 3'-C-methyl-ribonucleosides as antitumor agents” (Eur J Med Chem, 2011).

How the values were obtained:
[1] = tested on: Caco-2; assay: Antiproliferative activity against human Caco2 cells after 72 hrs by MTS assay; assay type: functional; conditions: Caco-2, 72 h
[2] = tested on: MCF7; assay: Antiproliferative activity against human MCF7 cells after 72 hrs by MTS assay; assay type: functional; conditions: MCF7, 72 h
[3] = tested on: K562; assay: Antiproliferative activity against human K562 cells after 72 hrs by MTS assay; assay type: functional; conditions: K562, 72 h
[4] = tested on: HeLa; assay: Antiproliferative activity against human HeLa cells after 72 hrs by MTS assay; assay type: functional
[5] = tested on: HT-29; assay: Antiproliferative activity against human HT-29 cells after 72 hrs by MTS assay; assay type: functional; conditions: HT-29, 72 h
[6] = target: T1, Ribonucleoside-diphosphate reductase RR1 (Homo sapiens) (UniProt P23921+Q7LG56+P31350); assay: (§1) Inhibition of human recombinant ribonucleotide reductase M2/M1 expressed in Escherichia coli BL21 (DE3) after 30 mins by [3H]CDP reduction method
[7] = target: T2, Ribonucleoside-diphosphate reductase RR1 (Homo sapiens, UniProt P23921+P31350+Q7LG56); assay: as §1
T2 sequence (P23921 whole entry): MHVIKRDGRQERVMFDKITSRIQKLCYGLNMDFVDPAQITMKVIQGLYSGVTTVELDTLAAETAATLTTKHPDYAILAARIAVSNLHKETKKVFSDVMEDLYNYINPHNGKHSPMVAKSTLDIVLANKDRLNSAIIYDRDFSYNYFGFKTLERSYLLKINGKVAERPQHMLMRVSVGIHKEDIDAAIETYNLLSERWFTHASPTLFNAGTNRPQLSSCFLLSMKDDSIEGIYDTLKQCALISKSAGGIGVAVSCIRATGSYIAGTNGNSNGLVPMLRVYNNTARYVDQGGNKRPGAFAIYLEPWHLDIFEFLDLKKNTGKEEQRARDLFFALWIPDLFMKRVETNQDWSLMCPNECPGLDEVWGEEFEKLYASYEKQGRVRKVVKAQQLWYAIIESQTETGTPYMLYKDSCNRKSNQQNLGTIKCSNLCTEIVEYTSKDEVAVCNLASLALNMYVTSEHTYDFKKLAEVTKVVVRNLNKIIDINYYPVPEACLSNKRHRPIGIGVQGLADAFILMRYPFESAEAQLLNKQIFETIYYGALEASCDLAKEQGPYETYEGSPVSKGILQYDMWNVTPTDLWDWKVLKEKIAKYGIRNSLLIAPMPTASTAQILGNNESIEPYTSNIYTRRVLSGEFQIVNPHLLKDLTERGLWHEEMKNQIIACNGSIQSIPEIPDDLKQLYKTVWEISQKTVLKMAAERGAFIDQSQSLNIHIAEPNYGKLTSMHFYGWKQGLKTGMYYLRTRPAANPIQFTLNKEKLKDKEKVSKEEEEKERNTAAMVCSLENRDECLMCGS
T2 sequence (Q7LG56 whole entry): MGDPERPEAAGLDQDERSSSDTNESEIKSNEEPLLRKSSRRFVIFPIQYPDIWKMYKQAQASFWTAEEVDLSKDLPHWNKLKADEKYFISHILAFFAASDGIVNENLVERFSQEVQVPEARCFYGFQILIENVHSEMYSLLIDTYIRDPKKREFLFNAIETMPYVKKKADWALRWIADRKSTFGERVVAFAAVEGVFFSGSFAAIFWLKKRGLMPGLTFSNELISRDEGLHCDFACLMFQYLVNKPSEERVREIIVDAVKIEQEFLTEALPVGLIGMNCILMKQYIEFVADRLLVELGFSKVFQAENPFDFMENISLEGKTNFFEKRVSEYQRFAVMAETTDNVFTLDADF
T2 sequence (P31350 whole entry): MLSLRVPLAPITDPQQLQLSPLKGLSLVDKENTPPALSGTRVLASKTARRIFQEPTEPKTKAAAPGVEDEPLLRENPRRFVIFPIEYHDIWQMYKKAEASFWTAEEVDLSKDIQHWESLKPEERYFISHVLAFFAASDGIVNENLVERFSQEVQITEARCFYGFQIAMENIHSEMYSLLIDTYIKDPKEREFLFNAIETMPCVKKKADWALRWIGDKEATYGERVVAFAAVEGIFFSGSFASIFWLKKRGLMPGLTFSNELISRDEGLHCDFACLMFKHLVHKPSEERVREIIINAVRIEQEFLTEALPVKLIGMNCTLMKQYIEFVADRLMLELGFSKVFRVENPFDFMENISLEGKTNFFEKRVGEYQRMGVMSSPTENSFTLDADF

[8] = target: T1, Ribonucleoside-diphosphate reductase RR1 (Homo sapiens); assay: (§2) Inhibition of human recombinant ribonucleotide reductase p53R2/M1 expressed in Escherichia coli BL21 (DE3) after 30 mins by [3H]CDP reduction method
[9] = target: T2, Ribonucleoside-diphosphate reductase RR1; assay: as §2
[10] = tested on: K562; assay: Antiproliferative activity against doxorubicin-sensitive human K562 cells after 72 hrs by MTS assay; assay type: functional; conditions: K562, 72 h, read-out: GI100

SMILES	GI50 [1] [µM]	GI50 [2] [µM]	GI50 [3] [µM]	GI50 [4] [µM]	GI50 [5] [µM]	inhibition [6]	IC50 [7] [µM]	TGI ([1]; read-out: GI100) [µM]	inhibition [8]	IC50 [9] [µM]	TGI ([2]; read-out: GI100) [µM]	TGI [10] [µM]	TGI ([4]; read-out: GI100) [µM]	TGI ([5]; read-out: GI100) [µM]
CO/N=c1/[nH]cnc2c1ncn2[C@@H]1O[C@H](CO)[C@@H](O)[C@H]1O	> 100	> 100	> 100	> 100	> 100	–	–	–	–	–	–	–	–	–
NNc1nc(Cl)nc2c1ncn2[C@@H]1O[C@H](CO)[C@@H](O)[C@H]1O	> 100	86.2	87.1	86	86.2	–	–	–	–	–	–	–	–	–
C[C@@]1(O)[C@@H](CO)O[C@@H](n2cnc3c(NN)ncnc32)[C@@H]1O	> 100	> 100	> 100	> 100	> 100	–	–	–	–	–	–	–	–	–
NNc1nc(NN)c2ncn([C@@H]3O[C@H](CO)[C@@H](O)[C@H]3O)c2n1	18.8	20.7	30.7	7.9	61.4	–	–	–	–	–	–	–	–	–
Nc1nc2c(ncn2[C@@H]2O[C@H](CO)[C@@H](O)[C@H]2O)/c(=N\O)[nH]1	> 100	> 100	99	> 100	> 100	–	–	–	–	–	–	–	–	–
OC[C@H]1O[C@@H](n2cnc3/c(=N\O)[nH]cnc32)[C@H](O)[C@@H]1O	> 100	> 100	31	3.4	15	–	–	–	–	–	–	–	–	–
C[C@@]1(O)[C@@H](CO)O[C@@H](n2cnc3c(N)ncnc32)[C@@H]1O	24.3	22.4	9.4	23.3	26.1	–	–	–	–	–	–	–	–	–
NNc1ncnc2c1ncn2[C@@H]1O[C@H](CO)[C@@H](O)[C@H]1O	1.03	0.35	0.61	0.52	1.44	Dose-dependent effect	232	5	Dose-dependent effect	244	6.1	2	5	8.2
CON(C)c1ncnc2c1ncn2[C@@H]1O[C@H](CO)[C@@](C)(O)[C@H]1O	> 100	> 100	> 100	> 100	> 100	–	–	–	–	–	–	–	–	–
CON(C)c1nc(N)nc2c1ncn2[C@@H]1O[C@H](CO)[C@@](C)(O)[C@H]1O	> 100	> 100	> 100	> 100	> 100	–	–	–	–	–	–	–	–	–
CO/N=c1/[nH]c(N)nc2c1ncn2[C@@H]1O[C@H](CO)[C@@H](O)[C@H]1O	> 100	58	49	> 100	> 100	–	–	–	–	–	–	–	–	–
C[C@@]1(O)[C@@H](CO)O[C@@H](n2cnc3c(NN)nc(N)nc32)[C@@H]1O	> 100	> 100	91	> 100	> 100	–	–	–	–	–	–	–	–	–
C[C@@]1(O)[C@@H](CO)O[C@@H](n2cnc3c(NO)ncnc32)[C@@H]1O	> 100	> 100	> 100	> 100	> 100	–	–	–	–	–	–	–	–	–
CONc1nc(N)nc2c1ncn2[C@@H]1O[C@H](CO)[C@@](C)(O)[C@H]1O	> 100	> 100	> 100	> 100	> 100	–	–	–	–	–	–	–	–	–
CONc1ncnc2c1ncn2[C@@H]1O[C@H](CO)[C@@](C)(O)[C@H]1O	> 100	> 100	> 100	> 100	> 100	–	–	–	–	–	–	–	–	–
CON(C)c1ncnc2c1ncn2[C@@H]1O[C@H](CO)[C@@H](O)[C@H]1O	84.1	46.8	> 100	> 100	> 100	–	–	–	–	–	–	–	–	–
C[C@@]1(O)[C@@H](CO)O[C@@H](n2cnc3c(NO)nc(N)nc32)[C@@H]1O	> 100	> 100	94	> 100	> 100	–	–	–	–	–	–	–	–	–
NNc1ncnc2c1ncn2[C@H]1C[C@H](O)[C@@H](CO)O1	> 100	7.9	12	16	18	–	–	–	–	–	–	–	–	–
NNc1nc(N)nc2c1ncn2[C@@H]1O[C@H](CO)[C@@H](O)[C@H]1O	> 100	> 100	> 100	> 100	> 100	–	–	–	–	–	–	–	–	–
